Here are results for 4 compounds from US5368712A, “Biologically mimetic synthetic ion channel transducers” (Synporin Technologies, Inc., priority 1990, dated 1994).

Several values for one entry are separate records, joined by “and”; a condition that tells them apart may be missing. Equal values may be shown once. Entries after “also recorded” stand apart in the source; their conditions may differ.

Experiment [1] is described as follows: Single channel recordings of synthetic channel proteins in lipid bilayers. The settings on record: for formation of ionic channels in lipid bilayers: single channel recordings in lipid bilayers. As to the method:
Using established recording, filtering, digitizing and data processing techniques, single channel recording were made of single channel recordings for tethered tetrameric M2δ proteins and free M2δ proteins (FIGS. 7 and 8 respectively). Conductance (V) and lifetime (T) values were determined from a multiplicity of events, and single channel open and closed lifetimes were discriminated using a published pattern recognition algorithm.
These recordings were made in symmetric 0.5M KCl (pH 7.4) and recorded at 100 mV. […] These were recorded at 0.5M NaCl (pH 7.2) and 100 mV.
Planar lipid bilayers into which the synthetic ion protein channels can be incorporated are prepared using commonly available and well understood lipids and bilayer formation techniques. For example, planar bilayers can be formed by hydrophobic apposition of two lipid monolayers initially formed at an air-water interface. The electrical properties of such protein-free bilayers can be examined using known techniques. Peptides can be incorporated into the bilayers from mixed lipid-peptide monolayers.

The target in experiment [2] is T1, tetrameric M2δ synthetic porin (Tetronarce californica, UniProt P02718).
T1 construct: multi-functional carrier template (peptide backbone of at least seven amino acids with four basic attachment residues); made in house; host or cells: chemical peptide synthesis (no expression host)
Briefly: Block of tetrameric M2δ synthetic porin by a local anaesthetic derivative, single channel recordings. The format is biochemical, Torpedo californica. The following applies: 25 μM QX-222. As to the method:
Furthermore, the pharmacological specificity of the pure structure generated by the tetrameric M2δ synthetic porin was examined by using a quaternary derivative (QX-222) of the local anaesthetic lidocaine. QX-222 is known to transiently block the flow of current through the AChR channel, thereby reducing the channel open lifetime. FIGS. 9A and […] show comparative single channel recordings of this synthetic porin before (FIG. 9A) and after (FIG. 9B) addition of 25 μM QX-222. The result is that the characteristic brief and long open lifetimes exist prior to application of the anaesthetic, as previously shown in FIG. 7.

“9 amino acid backbone used as template: nine-residue carrier template K K K P G K E K G without attached oligopeptides (KKKPGKEKG)”: the “formation of ionic channels in lipid bilayers” value in experiment [1] is on record as “showed similar activity”.

Turning to `Cc1cccc(C)c1NC(=O)C[N+](C)(C)C` [QX-222], in experiment [2], the “effect on channel open time” value is reported as “drastically shortened” and the “effect on single channel conductance V” value was “virutally unaffected”.

For the compound “EKMSTAISVLLAQAVFLLLTSQR [free (monomeric) M2δ, untethered 23-mer synthetic peptide mimicking the acetylcholine receptor M2δ subunit]”, in experiment [1] (0.5M NaCl (pH 7.2), 100 mV), the “single channel conductance V of distinct events” value is 20 pS and 40 pS. The “formation of ionic channels in lipid bilayers” value in experiment [1] is “form discrete ion channels in lipid bilayers; also recorded: forms channels of heterogeneous amplitudes and open lifetimes”.

For the compound “XPDWNWLDFTVITFAYVTEFVDL [22-residue synthetic peptide that mimics the electrical properties of a voltage dependent sodium channel]”, in experiment [1], the “selectivity cations versus anions” value was “discriminates cations over anions”; the “selectivity sodium ion versus potassium ion” value was “nonselective between sodium ion and potassium ion”; the “single channel open and close lifetimes” value is “in the millisecond time range”; the voltage dependence result is reported as “no specific voltage dependence”. Further, the “single channel conductance of the most frequent event” value in experiment [1] (0.5M sodium chloride) is on record as 20 pS.
